Experimental data taken from PubChem BioAssay AID298 (DTP/NCI, 2004).
Values joined by “and” are separate entries in the source; they are usually repeats but may differ in a detail not shown here. Equal entries are not always repeated. Results filed as inconclusive are left out.

Tested on: MX-1 breast xenograft, intrarenal, nude mice, tumor weight
Assay: NCI In Vivo Anticancer Drug Screen. Data for tumor model Human Mammary Carcinoma MX-1 Xenograft (intrarenal inoculation) in NU/NU BALB/C (nude) mice
Conditions: endpoint: mean tumor weight change, higher = larger tumour
Procedure, shortened: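 Efficacy in vivo: tumor measurement or survival of treated animals divided by that of vehicle-dosed controls.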

[1] = dose: 150.0 mg/kg/injection, schedule: Q04DX003 (ip), vehicle: DMSO
[2] = dose: 300.0 mg/kg/injection, schedule: Q04DX003 (ip), vehicle: DMSO
[3] = dose: 25.0 mg/kg/injection, schedule: Q04DX003 (ip), vehicle: saline
[4] = dose: 50.0 mg/kg/injection, schedule: Q04DX003 (ip), vehicle: saline
[5] = dose: 100.0 mg/kg/injection, schedule: Q04DX003 (ip), vehicle: saline
[6] = dose: 200.0 mg/kg/injection, schedule: Q04DX003 (ip), vehicle: saline
[7] = dose: 150.0 mg/kg/injection, schedule: Q04DX003 (ip), vehicle: saline with Tween-80
[8] = dose: 300.0 mg/kg/injection, schedule: Q04DX003 (ip), vehicle: saline with Tween-80
[9] = dose: 150.0 mg/kg/injection, schedule: Q04DX003 (sc), vehicle: saline
[10] = dose: 300.0 mg/kg/injection, schedule: Q04DX003 (sc), vehicle: saline
[11] = dose: 600.0 mg/kg/injection, schedule: Q04DX003 (sc), vehicle: saline
[12] = dose: 200.0 mg/kg/injection, schedule: Q04DX003 (ip), vehicle: saline with Tween-80
[13] = dose: 50.0 mg/kg/injection, schedule: Q04DX003 (ip), vehicle: saline with Tween-80
[14] = dose: 100.0 mg/kg/injection, schedule: Q04DX003 (ip), vehicle: saline with Tween-80

Compound: CCCCNc1ccc2nnc(C)n2n1
- T/C [1]: 94 % of control and 108 % of control
- T/C [2]: 78 % of control and 88 % of control

Compound: COc1cc(C2c3cc4c(cc3[C@@H](OC3OC5CO[C@@H](C)OC5C(O)C3O)[C@H]3COC(=O)C23)OCO4)cc(OC)c1OC (stereo partly specified)
- T/C [3]: 88 % of control
- T/C [4]: 84 % of control
- T/C [5]: 55 % of control
- T/C [6]: 61 % of control
- T/C (dose: 400.0 mg/kg/injection, schedule: Q04DX003 (ip), vehicle: saline): 32 % of control

Compound: COc1ccc(C[C@@H]2NC[C@@H](O)[C@@H]2OC(C)=O)cc1
- T/C [7]: 78 % of control
- T/C [8]: 110 % of control

Compound: CC(=O)C[n+]1ccc(C)cc1Sc1ccccc1C
- T/C (dose: 15.0 mg/kg/injection, schedule: Q04DX003 (ip), vehicle: suspension in saline): 111 % of control
- T/C (dose: 30.0 mg/kg/injection, schedule: Q04DX003 (ip), vehicle: suspension in saline): 97 % of control
- T/C (dose: 60.0 mg/kg/injection, schedule: Q04DX003 (ip), vehicle: suspension in saline): 80 % of control
- T/C (dose: 120.0 mg/kg/injection, schedule: Q04DX003 (ip), vehicle: suspension in saline): 102 % of control

Compound: Nc1ccc(S(=O)(=O)Nc2cnc3c(Cl)cccc3n2)cc1
- T/C [1]: 103 % of control
- T/C [2]: 49 % of control
- T/C (dose: 600.0 mg/kg/injection, schedule: Q04DX003 (ip), vehicle: DMSO): 75 % of control

Compound: CC(=O)OCC1OC(n2cc(CBr)nn2)C(OC(C)=O)C(OC(C)=O)C1OC(C)=O (stereo unspecified)
- T/C (dose: 25.0 mg/kg/injection, schedule: Q01DX010 (sc), vehicle: saline with Tween-80): 92 % of control
- T/C (dose: 50.0 mg/kg/injection, schedule: Q01DX010 (sc), vehicle: saline with Tween-80): 94 % of control
- T/C (dose: 100.0 mg/kg/injection, schedule: Q01DX010 (sc), vehicle: saline with Tween-80): 95 % of control
- T/C (dose: 200.0 mg/kg/injection, schedule: Q01DX010 (sc), vehicle: saline with Tween-80): 87 % of control

Compound: C/C=C(\C)c1cc(=O)c2c(C)cc3c(c2o1)C(=O)c1c(O)c(C2CC(C)(N(C)C)C(OC(C)=O)C(C)O2)cc(C2CC(N(C)C)C(O)C(C)O2)c1C3=O (stereo unspecified)
- T/C (dose: 2.5 mg/kg/injection, schedule: Q04DX003 (sc), vehicle: saline): 91 % of control
- T/C (dose: 40.0 mg/kg/injection, schedule: Q04DX003 (sc), vehicle: saline): 39 % of control and 43 % of control

Compound: Cc1cc(O)c2c(c1O)C(=O)C13C(=C2O)C(=O)C2C(O)C1C1C(O)C3C(=O)C3=C(O)c4c(O)cc(C)c(O)c4C(=O)C321 (stereo unspecified)
- T/C (dose: 12.5 mg/kg/injection, schedule: Q04DX003 (ip), vehicle: saline with Tween-80): 107 % of control
- T/C (dose: 25.0 mg/kg/injection, schedule: Q04DX003 (ip), vehicle: saline with Tween-80): 76 % of control

Compound: CC(C)CC(=O)NC(C(=O)NC(C(=O)NC(CC(C)C)C(O)CC(=O)NC(C)C(=O)NC(CC(C)C)C(O)CC(=O)O)C(C)C)C(C)C (stereo unspecified)
- T/C (dose: 150.0 mg/kg/injection, schedule: Q04DX002 (ip), vehicle: Klucel (hydroxypropylcellulose) (HPC)): 47 % of control
- T/C (dose: 150.0 mg/kg/injection, schedule: Q04DX003 (ip), vehicle: Klucel (hydroxypropylcellulose) (HPC)): 85 % of control
- T/C (dose: 300.0 mg/kg/injection, schedule: Q04DX002 (ip), vehicle: Klucel (hydroxypropylcellulose) (HPC)): 57 % of control
- T/C (dose: 600.0 mg/kg/injection, schedule: Q04DX002 (ip), vehicle: Klucel (hydroxypropylcellulose) (HPC)): 21 % of control

Compound: CNC(=O)Oc1ccc(S(=O)(=O)c2ccc(OC(=O)NC)cc2)cc1
- T/C [7]: 98 % of control
- T/C [8]: 89 % of control
- T/C (dose: 600.0 mg/kg/injection, schedule: Q04DX003 (ip), vehicle: saline with Tween-80): 33 % of control

Compound: CCCCCCCCCCCCCCCCP(=O)(OCCOCCCCCC)OCCOCCCCCC
- T/C [9]: 102 % of control
- T/C [10]: 97 % of control
- T/C [11]: 70 % of control

Compound: COc1ccc2oc3c(ccc[n+]3C)c(=O)c2c1
- T/C [12]: 116 % of control

Compound: CC(=O)NCCSSCCCCS(=O)O
- T/C (dose: 150.0 mg/kg/injection, schedule: Q04DX003 (ip), vehicle: saline): 110 % of control
- T/C (dose: 300.0 mg/kg/injection, schedule: Q04DX003 (ip), vehicle: saline): 112 % of control

Compound: COC1(OC)C2C=CC1CC2
- T/C (dose: 150.0 mg/kg/injection, schedule: Q04DX003 (sc), vehicle: saline with Tween-80): 116 % of control
- T/C (dose: 300.0 mg/kg/injection, schedule: Q04DX003 (sc), vehicle: saline with Tween-80): 104 % of control
- T/C (dose: 600.0 mg/kg/injection, schedule: Q04DX003 (sc), vehicle: saline with Tween-80): 121 % of control
- T/C (dose: 1200.0 mg/kg/injection, schedule: Q04DX003 (sc), vehicle: saline with Tween-80): 111 % of control

Compound: Cc1ccc(C(=O)NC2C(=O)NC(C(C)C)C(=O)N3CCCC3C(=O)N(C)CC(=O)N(C)C(C(C)C)C(=O)OC2C)c2c1Oc1c(c(C(=O)NC3C(=O)NC(C(C)C)C(=O)N4CCCC4C(=O)N(C)CC(=O)N(C)C(C(C)C)C(=O)OC3C)c3nc(-c4ccccc4)c(=O)oc3c1C)N2 (stereo unspecified)
- T/C (dose: 1.0 mg/kg/injection, schedule: Q04DX003 (ip), vehicle: water): 16 % of control and 26 % of control
- T/C (dose: 2.0 mg/kg/injection, schedule: Q04DX003 (ip), vehicle: water): 5 % of control

Compound: O=C1N[C@H]2[C@H](O)[C@H](O)[C@@H](O)[C@H](O)[C@@H]2c2cc3c(c(O)c21)OCO3
- T/C (dose: 12.5 mg/kg/injection, schedule: Q04DX003 (ip), vehicle: saline + alcohol): 72 % of control

Compound: CCC1OC(OC)C=CC1=O (stereo unspecified)
- T/C (dose: 18.75 mg/kg/injection, schedule: Q04DX003 (sc), vehicle: saline): 112 % of control
- T/C (dose: 37.5 mg/kg/injection, schedule: Q04DX003 (sc), vehicle: saline): 63 % of control
- T/C (dose: 75.0 mg/kg/injection, schedule: Q04DX003 (sc), vehicle: saline): 98 % of control

Compound: CCn1cnc2c(=S)nc[nH]c21
- T/C [9]: 91 % of control
- T/C [10]: 49 % of control

Compound: Cc1cccc(OCC(O)CN2CC2)c1 (stereo unspecified)
- T/C [13]: 63 % of control
- T/C [14]: 62 % of control

Compound: CC[C@]1(O)C[C@H]2CN(CCc3c([nH]c4ccccc34)[C@@](C(=O)OC)(c3cc4c(cc3OC)N(C)[C@H]3[C@@](O)(C(=O)OC)[C@H](OC(C)=O)[C@]5(CC)C=CCN6CC[C@]43[C@@H]65)C2)C1
- T/C (dose: 0.25 mg/kg/injection, schedule: Q01DX010 (sc), vehicle: saline): 43 % of control
- T/C (dose: 0.5 mg/kg/injection, schedule: Q01DX010 (sc), vehicle: saline): 18 % of control

Compound: CN(C)CCNc1ccc(CO)c2sc3ccc(O)cc3c(=O)c12
- T/C [13]: 30 % of control
- T/C [14]: 25 % of control and 26 % of control and 28 % of control
- T/C [12]: 6 % of control and 17 % of control and 28 % of control
- T/C (dose: 400.0 mg/kg/injection, schedule: Q04DX003 (ip), vehicle: saline with Tween-80): 5 % of control and 10 % of control and 18 % of control

Compound: CC1(C)OCC2OC=CC(=O)C2O1 (stereo unspecified)
- T/C [9]: 110 % of control
- T/C [10]: 97 % of control
- T/C [11]: 74 % of control

Compound: O=C(CCCN1CCC(O)(c2cccc(C(F)(F)F)c2)CC1)c1ccc(F)cc1
- T/C (dose: 25.0 mg/kg/injection, schedule: Q01DX010 (sc), vehicle: Klucel (hydroxypropylcellulose) (HPC)): 33 % of control

Compound: Cc1ccc(C(=O)Nc2ccc(S(=O)(=O)O)c3cc(S(=O)(=O)O)cc(S(=O)(=O)O)c23)cc1NC(=O)c1cccc(NC(=O)Nc2cccc(C(=O)Nc3cc(C(=O)Nc4ccc(S(=O)(=O)O)c5cc(S(=O)(=O)O)cc(S(=O)(=O)O)c45)ccc3C)c2)c1
- T/C [4]: 77 % of control
- T/C [5]: 56 % of control
- T/C [6]: 51 % of control

Compound: NCCCNCCCCNC(=O)C(O)NC(=O)CC(O)CCCCN=C(N)N (stereo unspecified)
- T/C (dose: 12.5 mg/kg/injection, schedule: Q04DX003 (ip), vehicle: saline): 100 % of control
- T/C [3]: 93 % of control
- T/C [4]: 29 % of control and 44 % of control
- T/C [5]: 53 % of control and 56 % of control

Compound: N=C(N)c1nn(C2OC(CO)C(O)C2O)c2nc[nH]c(=O)c12 (stereo unspecified)
- T/C (dose: 12.5 mg/kg/injection, schedule: Q04DX003 (ip), vehicle: Klucel + Tween-80): 92 % of control
- T/C (dose: 25.0 mg/kg/injection, schedule: Q04DX003 (ip), vehicle: Klucel + Tween-80): 42 % of control
- T/C (dose: 25.0 mg/kg/injection, schedule: Q04DX003 (ip), vehicle: distilled water + Tween-80 + alcohol): 95 % of control
- T/C (dose: 50.0 mg/kg/injection, schedule: Q04DX003 (ip), vehicle: distilled water + Tween-80 + alcohol): 83 % of control
- T/C (dose: 75.0 mg/kg/injection, schedule: Q04DX003 (ip), vehicle: Klucel + Tween-80): 36 % of control
- T/C (dose: 100.0 mg/kg/injection, schedule: Q04DX003 (ip), vehicle: distilled water + Tween-80 + alcohol): 4 % of control
- T/C (dose: 125.0 mg/kg/injection, schedule: Q04DX003 (ip), vehicle: Klucel + Tween-80): 9 % of control

Compound: C=C1COC(O)(C2OCOC(C3CC(=O)NC(=O)C3)C2O)C1C (stereo unspecified)
- T/C (dose: 37.5 micrograms/kg/injection, schedule: Q04DX003 (ip), vehicle: water): 117 % of control
